In one test the test system is CD8+ T cells. Briefly: In vitro T-cell priming assay with aAPCs loaded with peptide/MHC complexes and anti-CD28 (immunogenicity, multimer staining). It counts as cell-based, human. Conditions: in vitro immunogenicity, HLA class I peptides; percentage of positive wells. The source says:
In order to obtain information regarding the immunogenicity of the TUMAPs of the present invention, the inventors performed investigations using an in vitro T-cell priming assay based on repeated stimulations of CD8+ T cells with artificial antigen presenting cells (aAPCs) loaded with peptide/MHC complexes and anti-CD28 antibody.
In order to perform in vitro stimulations by artificial antigen presenting cells loaded with peptide-MHC complex (pMHC) and anti-CD28 antibody, the inventors first isolated CD8+ T cells from fresh HLA-A*02 leukapheresis products via positive selection using CD8 microbeads (Miltenyi Biotec, Bergisch-Gladbach, Germany) of healthy donors obtained from the University clinics Mannheim, Germany, after informed consent.
PBMCs and isolated CD8+ lymphocytes were incubated in T-cell medium (TCM) until use consisting of RPMI-Glutamax (Invitrogen, Karlsruhe, Germany) supplemented with 10% heat inactivated human AB serum (PAN-Biotech, Aidenbach, Germany), 100 U/ml Penicillin/100 μg/ml Streptomycin (Cambrex, Cologne, Germany), 1 mM sodium pyruvate (CC Pro, Oberdorla, Germany), 20 μg/ml Gentamycin (Cambrex). 2.5 ng/ml IL-7 (PromoCell, Heidelberg, Germany) and 10 U/ml IL-2 (Novartis Pharma, Nürnberg, Germany) were also added to the TCM at this step.
Generation of pMHC/anti-CD28 coated beads, T-cell stimulations and readout was performed in a highly defined in vitro system using four different pMHC molecules per stimulation condition and 8 different pMHC molecules per readout condition.
The purified co-stimulatory mouse IgG2a anti human CD28 Ab 9.3 (Jung et al., 1987) was chemically biotinylated using Sulfo-N-hydroxysuccinimidobiotin as recommended by the manufacturer (Perbio, Bonn, Germany). Beads used were 5.6 μm diameter streptavidin coated polystyrene particles (Bangs Laboratories, Illinois, USA).
pMHC used for positive and negative control stimulations were A*0201/MLA-001 (peptide […] (SEQ ID NO. 152) from modified Melan-A/MART-1) and A*0201/DDX5-001 ([…] from DDX5 (SEQ ID NO. 153)), respectively.
800.000 beads/200 μl were coated in 96-well plates in the presence of 4×12.5 ng different biotin-pMHC, washed and 600 ng biotin anti-CD28 were added subsequently in a volume of 200 μl. Stimulations were initiated in 96-well plates by co-incubating […] CD8+ T cells with 2×10^5 washed coated beads in 200 μl TCM supplemented with 5 ng/ml IL-12 (PromoCell) for 3 days at 37° C. Half of the medium was then exchanged by fresh TCM supplemented with 80 U/ml IL-2 and incubating was continued for 4 days at 37° C. This stimulation cycle was performed for a total of three times. For the pMHC multimer readout using 8 different pMHC molecules per condition, a two-dimensional combinatorial coding approach was used as previously described (Andersen et al., 2012) with minor modifications encompassing coupling to 5 different fluorochromes. Finally, multimeric analyses were performed by staining the cells with Live/dead near IR dye (Invitrogen, Karlsruhe, Germany), CD8-FITC antibody clone SK1 (BD, Heidelberg, Germany) and fluorescent pMHC multimers. For analysis, a BD LSRII SORP cytometer equipped with appropriate lasers and filters was used. Peptide specific cells were calculated as percentage of total CD8+ cells. Evaluation of multimeric analysis was done using the FlowJo software (Tree Star, Oregon, USA). In vitro priming of specific multimer+ CD8+ lymphocytes was detected by comparing to negative control stimulations.

Another test concerns the target HLA-A*02:01 (Homo sapiens, UniProt P04439, D140Y/D185E/D98H/E176V/E277Q/G131W/G231S/I119V/I121R/I166T/I218V/L300P/L318F/N151K/N90K/P208A/P217A/Q86G/Q94H/R138H/R169H/T345S). Briefly: MHC binding assay (UV-ligand exchange, beta2m ELISA). Conditions: peptide exchange yield, HLA-A*02:01, UV-ligand exchange. The text has this:
Candidate peptides for T cell based therapies according to the present invention were further tested for their MHC binding capacity (affinity). The individual peptide-MHC complexes were produced by UV-ligand exchange, where a UV-sensitive peptide is cleaved upon UV-irradiation, and exchanged with the peptide of interest as analyzed. Only peptide candidates that can effectively bind and stabilize the peptide-receptive MHC molecules prevent dissociation of the MHC complexes. To determine the yield of the exchange reaction, an ELISA was performed based on the detection of the light chain (β2m) of stabilized MHC complexes. The assay was performed as generally described in Rodenko et al. (Rodenko et al., 2006).
96 well MAXISorp plates (NUNC) were coated over night with 2 ug/ml streptavidin in PBS at room temperature, washed 4× and blocked for 1 h at 37° C. in 2% BSA containing blocking buffer. Refolded HLA-A*02:01/MLA-001 monomers served as standards, covering the range of 15-500 ng/ml. Peptide-MHC monomers of the UV-exchange reaction were diluted 100 fold in blocking buffer. Samples were incubated for 1 h at 37° C., washed four times, incubated with 2 ug/ml HRP conjugated anti-β2m for 1 h at 37° C., washed again and detected with TMB solution that is stopped with […]. Absorption was measured at 450 nm. Candidate peptides that show a high exchange yield (preferably higher than 50%, most preferred higher than 75%) are generally preferred for a generation and production of antibodies or fragments thereof, and/or T cell receptors or fragments thereof, as they show sufficient avidity to the MHC molecules and prevent dissociation of the MHC complexes.
Background: In an ELISA, binding on a coated surface is turned into a signal by an enzyme label.

Take “3 (RLLGEVQAL; listed as Homo sapiens) [compound 3]”: the “Wells positive [%]” value in the test with CD8+ T cells is on record as “+ (<20% = +)”. Further, the “Peptide exchange (MHC class I binding score)” value (shortened to “Peptide exchange”) with HLA-A*02:01 was “++ (≥20% = ++)”.

As to “6 (VLFELSKTV; listed as Homo sapiens) [compound 6]”, the “Wells positive [%]” value with CD8+ T cells is recorded as “+ (<20% = +)”. Moreover, in the test with HLA-A*02:01, the “Peptide exchange” value is listed as “+++ (≥50 = +++)”.

On to “7 (FLLSLIDRL; listed as Homo sapiens) [compound 7]”, for which the “Wells positive [%]” value with CD8+ T cells is “+ (<20% = +)”. Moreover, the “Peptide exchange” value in the test with HLA-A*02:01 is given as “+++ (≥50 = +++)”.

Turning to “9 (ILLQKPDSV; listed as Homo sapiens) [compound 9]”, the “Wells positive [%]” value in the test on CD8+ T cells is recorded as “+ (<20% = +)”. In addition, the “Peptide exchange” value in the test with HLA-A*02:01 was “++ (≥20% = ++)”.

Take “15 (ILIKHLVKV; listed as Homo sapiens) [compound 15]”: the “Wells positive [%]” value in the test on CD8+ T cells is given as “+ (<20% = +)”. Further, the “Peptide exchange” value in the test with HLA-A*02:01 is on record as “++ (≥20% = ++)”.

Turning to “16 (FMPEELPQL; listed as Homo sapiens) [compound 16]”, the “Wells positive [%]” value in the test with CD8+ T cells was “+ (<20% = +)”. Further, in the test with HLA-A*02:01, the “Peptide exchange” value is recorded as “++ (≥20% = ++)”.

With “20 (AVANTTFTV; listed as Homo sapiens) [compound 20]”, the “Wells positive [%]” value in the test with CD8+ T cells is “+ (<20% = +)”. The “Peptide exchange” value in the test with HLA-A*02:01 is recorded as “++ (≥20% = ++)”.

Consider “29 (ILLDLEQAL; listed as Homo sapiens) [compound 29]”, for which the “Wells positive [%]” value in the test on CD8+ T cells is on record as “+ (<20% = +)”. In the test with HLA-A*02:01, the “Peptide exchange” value is on record as “+++ (≥50 = +++)”.

As to “95 (KLTDVGIATL; listed as Homo sapiens) [compound 95]”, the “Wells positive [%]” value in the test on CD8+ T cells is “++++ (>=70% = ++++)”. For the same substance, the “Peptide exchange” value with HLA-A*02:01 is listed as “++ (≥20% = ++)”.

Consider “98 (KIPPVSPSI; listed as Homo sapiens) [compound 98]”, for which the “Wells positive [%]” value with CD8+ T cells is listed as “++++ (>=70% = ++++)”. The “Peptide exchange” value in the test with HLA-A*02:01 is on record as “++ (≥20% = ++)”.

Source of the values: patent US9993536B2, “Peptides and combination of peptides and scaffolds for use in immunotherapy against renal cell carcinoma (RCC) and other cancers” (immatics biotechnologies GmbH, priority 2015, dated 2018).
